# Test results: patent publication US20250388625A1, “CYCLOSPORINE ANALOGUES” (priority 2022, published 2025)
# Legend:
# IFITM3 [1] = biological target: T1, IFITM3 (Homo sapiens, UniProt Q01628); assay type: cell-based; design: treated with 10 ng/ml type 1 interferon (IFNβ) overnight to induce IFITM3 expression; endogenous in cells; host or cells: THP-1 (human monocytic cell line), IFNβ-treated
# CypA = CypA (Homo sapiens, UniProt P62937); experiment: biochemical; assay type: binding; settings: for Kd / Max Response: SPR, Biacore, 25° C.
# CypA, sequence (P62937 whole entry): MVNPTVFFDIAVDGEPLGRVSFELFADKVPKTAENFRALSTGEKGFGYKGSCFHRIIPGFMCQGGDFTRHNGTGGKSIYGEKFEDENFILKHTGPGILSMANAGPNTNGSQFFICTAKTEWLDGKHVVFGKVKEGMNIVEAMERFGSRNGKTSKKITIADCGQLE
# Protocol: CypA binding was carried out using surface plasmon resonance as described (Warne J Biol Chem. 2016 Feb. 26; 291 (9): 4356-73).
# Surface Plasmon Resonance (SPR) using Biacore at 25° C. was used to study the binding interactions between CypA and various inhibitors. The SPR binding experiments used a duel flow cell with a blank reference. The sensor chip surface was initially activated with a mixture of N-hydroxysuccinimide (NHS,) and N-(3-dimethyl-aminopropyl)-N′-ethyl-carbodiimide hydrochloride (EDC) for 420 s with a flow rate of 10 μl/min on blank flow cell 1 in addition to flow cell 2.
# CypA protein was diluted to a concentration of 50 μg/mL by the addition of 10 mM sodium acetate pH 5 solution before immobilisation and covalent attachment to the carboxy-methylated dextran matrix of the Biacore CM5 sensor chip. CypA was run against the surface for 420 s and then any unreacted surface was quenched by 420 s of ethanolamine.
# Immobilisations were carried out in the presence of JW47 (Warne J Biol Chem. 2016 Feb. 26; 291 (9): 4356-73).
# No regeneration stage was required if the dissociation time was sufficient.
# Solvent correction was carried out in each experiment using 8 different DMSO dilutions as reference: 2.8%, 2.6%, 2.4%, 2.2%, 2%, 1.8%, 1.6% & 1.5%.
# A 50/50 mixture of buffer and DMSO is required to include a wash cycle in the experiment.
# 50 μl of CypA (0.1 mg/ml)+40 μL of 10 mM sodium acetate pH5+10 μl of 600 μM of JW47 DMSO solution. This mixture was allowed to stand at room temperature for 10 mins prior to set-up in the injection rack.
# Human stem cells (HSC) [2] = experiment: Cell viability of human stem cells (FIG. 5); settings: compared with PS+LB treatment
# Human stem cells (HSC) [3] = experiment: Mean fluorescent intensity of transduced human stem cells (FIG. 7); assay type: cell-based; settings: for overall performance as transduction enhancer in stem cells: Examples 5 and 6
# Protocol: Here a different measurement was made of transgene expression using the cells from the same experiment as that above (Example 5). Rather than measuring the number of cells transduced (% infection) the mean fluorescent intensity (greenness of the transgene expressing cells) was measured.
# [4] = test system: SARS-COV-2 (Alpha, Delta or Omicron isolates); experiment: SARS-COV-2 replication in Calu-3 lung epithelial cells by RT-qPCR (FIG. 9B); assay type: cell-based
# IFITM3 [5] = biological target: T1, IFITM3; experiment: IFITM3 levels by immunoblot in IFNβ-treated THP-1 cells (FIG. 9A); assay type: cell-based; design: treated with 10 ng/ml type 1 interferon (IFNβ) overnight to induce IFITM3 expression; endogenous in cells; host or cells: THP-1 (human monocytic cell line), IFNβ-treated; settings: 5 μM, 6 hours; Actin loading control
# Protocol: THP-1 cells (human monocytic cell line) were treated with […] Type I interferon (IFNβ) overnight to induce IFITM3 expression. […] Protein samples were harvested 6 hours later and the IFITM3 levels measured by immunoblot with Actin detected as a loading control. IFN induces IFITM3.
# IFITM3 [6] = biological target: T1, IFITM3; assay type: cell-based; design: treated with 10 ng/ml type 1 interferon (IFNβ) overnight to induce IFITM3 expression; endogenous in cells; host or cells: THP-1 (human monocytic cell line), IFNβ-treated; remark: listed apart in the source
# IFITM3 [7] = biological target: T1, IFITM3; assay type: cell-based; design: treated with 10 ng/ml type 1 interferon (IFNβ) overnight to induce IFITM3 expression; endogenous in cells; host or cells: THP-1 (human monocytic cell line), IFNβ-treated; remark: listed apart in the source
# Human stem cells (HSC) [8] = assay type: cell-based
# U87 cells = experiment: HIV-GFP infection of U87 cells (FIG. 2); assay type: cell-based; settings: MOI 0.3, tested at 2.5, 5, or 10 μM
# Protocol: Next, an experiment was performed in U87 cells. These cells differ from THP-1 in that they express IFITM3 and TRIM5. Thus only inhibitors with reduced CypA inhibition will rescue infection. This functionally tests whether the inhibitors have lost CypA inhibition, but retain IFITM3 inhibition.
# U87 cells were infected at an MOI of 0.3 in the presence of DMSO (0.1% v/v) or inhibitors at 2.5, 5, or 10 μM (left bar to right bar for each indicated compound, respectively). Inhibition of IFITM3 raises infectivity. Unlike other inhibitors, BG147 gives maximal infection enhancement at the lowest concentration of 2.5 μM. Other molecules achieve maximal infection rescue at the highest concentration.
# T1 sequence (Q01628 whole entry): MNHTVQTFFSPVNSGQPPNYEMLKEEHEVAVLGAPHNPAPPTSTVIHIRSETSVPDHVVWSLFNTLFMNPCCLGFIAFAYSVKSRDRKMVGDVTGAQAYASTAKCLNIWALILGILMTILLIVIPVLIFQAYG
SMILES,fold rescue compared to inhibited baseline (IFITM3 [1]),koff (CypA),kon (CypA),Kd (CypA; Kd (Affinity)),Kd (CypA; Kd (Kinetics)),Max Response (CypA),cell viability after treatment (Human stem cells (HSC) [2]),overall performance as transduction enhancer in stem cells (Human stem cells (HSC) [3]),"inhibition of viral replication (E copies, fold change vs DMSO) [4]",IFITM3 protein levels by immunoblot (IFITM3 [5]),rescue of infection from IFN (% infected cells) (IFITM3 [6]),mean fluorescent intensity (greenness of transgene expressing cells) (Human stem cells (HSC) [3]; treatment with 2.5 μM BG147+PS+LB),relative potency in rescue of infection (IFITM3 [7]),rescue of infection from the antiviral effect of IFN (IFITM3 [7]),"transduction enhancement (% infected human stem cells), first donor (Human stem cells (HSC) [8]; 48 hours post transduction, FIG. 4)","transduction enhancement (% infected human stem cells), second HSC donor (Human stem cells (HSC) [8]; 48 hours post transduction, FIG. 6)","combination effect on number of transduced cells (Human stem cells (HSC) [8]; BG147 at 2.5 μM with PS and LB, second HSC donor)",concentration giving maximal infection enhancement (U87 cells)
"CC[C@@H]1NC(=O)[C@H]([C@H](O)[C@H](C)C/C=C/c2ccc(C(=O)OCCn3ccnc3)cc2)N(C)C(=O)[C@H](C(C)C)N(C)C(=O)[C@H](CC(C)C)N(C)C(=O)[C@H](CC(C)C)N(C)C(=O)[C@@H](C)NC(=O)[C@H](C)NC(=O)[C@H](CC(C)C)N(C)C(=O)[C@H](C(C)C)NC(=O)[C@H](CC(C)C)N(C)C(=O)CN(C)C1=O [JW3-158, 2-(1H-imidazol-1-yl)ethyl-4-((4R,5R,E)-5-((2S,5S,11S,14S,17S,20S,23R,26S,29S,32S)-5-ethyl-11,17,26,29-tetraisobutyl-14,32-diisopropyl-1,7,10,16,20,23,25,28,31-nonamethyl-3,6,9,12,15,18,21,24,27,30,33-undecaoxo-1,4,7,10,13,16,19,22,25,28,31-undecaazacyclotritriacontan-2-yl)-5-hydroxy-4-methylpent-1-en-1-yl)benzoate]",29.2 fold,0.00217 s⁻¹,13400 M⁻¹ s⁻¹,1830 nM,160 nM,27.0 RU,viability is good,not working so well,inhibits Delta and Omicron replication to a greater extent than Alpha,most potent effect,–,–,–,–,–,–,–,–
"CC[C@@H]1NC(=O)[C@H]([C@H](O)[C@H](C)C/C=C/c2ccc(C(=O)OCCn3ccnc3)c3ccccc23)N(C)C(=O)[C@H](C(C)C)N(C)C(=O)[C@H](CC(C)C)N(C)C(=O)[C@H](CC(C)C)N(C)C(=O)[C@@H](C)NC(=O)[C@H](C)NC(=O)[C@H](CC(C)C)N(C)C(=O)[C@H](C(C)C)NC(=O)[C@H](CC(C)C)N(C)C(=O)CN(C)C1=O [BG147, 2-(1H-imidazol-1-yl)-ethyl-4-((4R,5R,E)-5-((2S,5S,11S,14S,17S,20S,23R,26S,29S,32S)-5-ethyl-11,17,26,29-tetraisobutyl-14,32-diisopropyl-1,7,10,16,20,23,25,28,31-nonamethyl-3,6,9,12,15,18,21,24,27,30,33-undecaoxo-1,4,7,10,13,16,19,22,25,28,31-undecaazacyclotritriacontan-2-yl)-5-hydroxy-4-methylpent-1-en-1-yl)-1-naphthoate]",–,0.0216 s⁻¹,9750 M⁻¹ s⁻¹,5270 nM,2220 nM,14.0 RU,viability is good,performs best,–,–,completely rescued infection from IFN,greenest cells,more potent than CsH,rescue infection from the antiviral effect of IFN,out performs other inhibitors and is as effective as state of the art transduction enhancer,out-performed other inhibitors including state of the art transduction enhancer combination of LB+PS,additive with PS and LB giving the best number of transduced (infected) cells,2.5 µM
